Laboratory results reported in patent US8367677B2, “Non-glycosylated/non-glycosidic/non-peptidic small molecule PSGL-1 mimetics for the treatment of inflammatory disorders” (Revotar Biopharmaceuticals AG, priority 2004, dated 2013).

Columns and labels:
[1] = system: human E-selectin-IgG chimera; assay: Flow chamber assay, cell adhesion and rolling under flow conditions, E-selectin; format: cell-based; conditions: 125 μM compound, flow shear 1 dyne/cm^2
Description: (§1) To assess the capability of compounds to inhibit cell binding under dynamic conditions resembling the flow in a blood vessel, flow chamber assays addressing/testing binding of HL-60 cells/various cell lines to P-selectin, L-selectin and E-selectin chimeric molecules are performed.
(§2) Cell attachment under flow conditions are determined using a parallel flow chamber system. A 35 mm polystyrene culture dish is coated for 1 hour at room temperature with coating buffer (50 mM tris-(hydroxymethyl)aminomethane buffer (Tris), 150 mM NaCl, 2 mM CaCl2; pH 7,4) containing human E- or P-selectin-IgG chimera at concentrations of 2.5 μg/ml or 10 μg/ml, respectively. After removal of the coating solution non specific binding sites are blocked for an additional hour with 1% BSA in coating buffer at room temperature. After washing with assay buffer (“Roswell Park Memorial Institute 1640” (RPMI 1640)+10 mM HEPES) the dish is fitted into a parallel plate laminar flow chamber (sold from Glycotech, Rockville, Md.) and mounted on an inverted phase-contrast microscope (sold from Olympus, Hamburg, Germany) equipped with a CCD camera (JVC) that is connected to a PC. Employing a peristaltic pump (sold from Ismatec, Wertheim-Mondfeld, Germany) the re-circulating system is equilibrated with assay buffer containing 125 μM compound or vehicle control (DMSO). Cells (1 million/ml) are added to the chamber and allowed to distribute for 2 minutes at a high flow rate. The flow rate is then decreased resulting in a calculated flow shear of 1 dyne/cm^2. Video sequences of 10 low power fields are digitally recorded after 5 minutes continuous flow. The percentage of inhibition is calculated from the mean number of cells per field that attached to the coated dish surface in the presence versus absence of compound […].

[2] = system: human P-selectin-IgG chimera; assay: Flow chamber assay, cell adhesion and rolling under flow conditions, P-selectin; format: cell-based; conditions: 125 μM compound, flow shear 1 dyne/cm^2
Description: as §1, §2

[3] = Parallel Artificial Membrane Permeation Assay (PAMPA); format: in vitro ADME; conditions: 16 hours, room temperature; for [% flux] at pH 4.0: pH 4.0, 500 μM donor; for [% flux] at pH 7.4: pH 7.4, 500 μM donor
Description: The test compounds are dissolved at 10 mM in DMSO and diluted to 500 μM with PBS pH 7.4 or pH 4.0, respectively resulting in ‘donor solutions’. For use as an artificial membrane, a 1% solution of lecithin (w/v) in dodecane is prepared and sonicated. Then, 5 μl of the lecithin/dodecane mixture are carefully pipetted into each donor plate well. Immediately after the application of the artificial membrane, 150 μl of drug containing donor solutions are added to each well of the donor plate. Each well of the acceptor plate is filled with 300 μl buffer (PBS with 5% DMSO at pH 7.4 or pH 4.0, respectively) and the drug-filled donor plate is placed onto the acceptor plate, making sure the membrane is in contact with the buffer. After replacement of the lid, the assembled plates are transferred into a sealed box equipped with a moistured towel and incubated at room temperature for 16 hours. Then, the wells of the acceptor plate are analyzed with LC/MS.

[4] = target: T1, human L-Selectin-IgG-chimera (Homo sapiens, UniProt P14151); assay: Sialyl Lewis x Tyrosine Sulfate Assay (sLex TSA), L-selectin; format: binding
T1 construct: fused on or other part: human IgG Fc part, a tag and dimerising handle that is captured by the goat anti-human Fc antibody on the plate
T1 sequence (P14151 39-318 limits assumed): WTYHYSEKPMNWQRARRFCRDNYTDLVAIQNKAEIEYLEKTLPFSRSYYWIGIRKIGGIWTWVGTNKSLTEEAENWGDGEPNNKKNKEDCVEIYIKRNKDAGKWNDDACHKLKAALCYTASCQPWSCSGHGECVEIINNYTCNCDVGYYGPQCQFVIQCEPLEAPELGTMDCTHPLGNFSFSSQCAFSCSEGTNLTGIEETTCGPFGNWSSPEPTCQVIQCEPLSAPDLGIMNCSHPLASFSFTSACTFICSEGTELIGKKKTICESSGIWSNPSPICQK
Description: (§3) Compounds of the present invention are assayed on a molecular level for their ability to inhibit the binding of P-, L-, or E-selectin chimeric molecules to sLe^x and tyrosinesulfate residues linked to a polymeric matrix as a PSGL-1 substitute.
(§4) Microtiter plates are coated overnight in carbonate buffer pH9.6 with goat anti human Fc mAB (10 μg/ml). After washing in assay buffer (25 mM 4-(2-hydroxyethyl)-1-piperazineethanesulfonic acid (HEPES), 150 mM NaCl, 1 mM CaCl2 pH7.4) and blocking (3% bovine serum albumin (BSA) in assay buffer) plates are incubated for 2 h at 37° C. with human P-Selectin-IgG-chimera (0.61 nM respectively 150 ng/mL) or human L-Selectin-IgG-chimera (0.61 nM respectively 89 ng/mL) or human E-Selectin-IgG-chimera (0.61 nM respectively 131 ng/mL). 5 μl of sLe^x-tyrosine sulfate polyacrylamide (1 mg/ml) carrying 15% sLe^x, 10% Tyrosine-sulfate and 5% biotin is complexed with 20 μl Streptavidin-Peroxidase solution (1 mg/ml) and 25 μl assay buffer without CaCl2. For use in the assay, the ligand complex is diluted 1:10000 in assay buffer and further diluted 1:1 with varying amounts of compounds in assay buffer incl. 2% DMSO. This mixture is added to the wells precoated with E- or P-selectin. After incubation for 2 h at 37° C., wells are washed for six times with in assay buffer incl. 0.005% Polyoxyethylenesorbitan monolaurate (TWEEN 20), developed for 10-15 min with 20 μl 3,3′,5,5′-tetramethylbenzidine (TMB)/H2O2 substrate solution and stopped with 20 μl […]. Bound sLe^x-Tyrosine sulfate ligand complex is determined by measuring optical density at 450 nm vs. 620 nm in a Fusion alpha-FP reader (sold from Packard Bioscience, Dreieich, Germany).

[5] = target: T2, human P-Selectin-IgG-chimera (Homo sapiens, UniProt P16109); assay: Sialyl Lewis x Tyrosine Sulfate Assay (sLex TSA), P-selectin; format: binding
T2 sequence (P16109 42-771 limits assumed): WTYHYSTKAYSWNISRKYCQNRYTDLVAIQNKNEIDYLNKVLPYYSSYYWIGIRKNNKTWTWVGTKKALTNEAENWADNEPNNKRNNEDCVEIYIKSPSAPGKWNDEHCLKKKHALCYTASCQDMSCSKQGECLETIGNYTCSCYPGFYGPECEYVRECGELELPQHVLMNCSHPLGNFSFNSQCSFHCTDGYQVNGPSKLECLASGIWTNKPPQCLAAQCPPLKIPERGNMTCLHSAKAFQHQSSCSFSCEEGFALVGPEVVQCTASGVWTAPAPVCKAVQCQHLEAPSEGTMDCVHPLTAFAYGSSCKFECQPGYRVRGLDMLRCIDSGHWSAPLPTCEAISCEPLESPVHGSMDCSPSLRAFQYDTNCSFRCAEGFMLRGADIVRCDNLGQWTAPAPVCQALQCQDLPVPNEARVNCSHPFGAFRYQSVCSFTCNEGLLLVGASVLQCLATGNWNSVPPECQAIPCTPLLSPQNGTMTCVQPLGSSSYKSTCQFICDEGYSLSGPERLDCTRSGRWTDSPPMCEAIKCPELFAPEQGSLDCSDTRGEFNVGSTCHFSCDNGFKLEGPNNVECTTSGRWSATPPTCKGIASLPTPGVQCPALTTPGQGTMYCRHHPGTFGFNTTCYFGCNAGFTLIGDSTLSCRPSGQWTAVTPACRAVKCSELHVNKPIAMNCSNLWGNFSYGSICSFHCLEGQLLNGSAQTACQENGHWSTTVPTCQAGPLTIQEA
Description: as §3, §4

[6] = target: T3, human E-Selectin-IgG-chimera (Homo sapiens, UniProt P16581); assay: Sialyl Lewis x Tyrosine Sulfate Assay (sLex TSA), E-selectin; format: binding
T3 construct: fused on or other part: human IgG Fc part, a tag and dimerising handle that is captured by the goat anti-human Fc antibody on the plate
T3 sequence (P16581 22-175 limits assumed): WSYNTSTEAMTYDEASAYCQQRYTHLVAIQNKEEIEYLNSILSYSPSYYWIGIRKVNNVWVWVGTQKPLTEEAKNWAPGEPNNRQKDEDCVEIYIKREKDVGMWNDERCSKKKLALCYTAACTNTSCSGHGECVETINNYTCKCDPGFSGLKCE
Description: as §3, §4

SMILES: O=C(Cc1cc(O)c(O)c(O)c1)NCc1ccc(C(=O)O)cc1 [Compound 118]
- E-Selectin [% Inhib.] of cell attachment [1]: 16%
- P-Selectin [% Inhib.] of cell attachment [2]: 20%
- [% flux] at pH 4.0 [3]: 0%
- [% flux] at pH 7.4 [3]: 1%
- IC50 [4]: 26.2 µM
- inhibition at 100 µM ([4]; compound at 100 μM, read-out: L-Selectin [% Inhib.]): 66%
- IC50 [5]: 14.8 µM
- inhibition at 100 µM ([5]; compound at 100 μM, read-out: P-Selectin [% Inhib.]): 79%
- IC50 [6]: 8.7 µM
- inhibition at 100 µM ([6]; compound at 100 μM, read-out: E-Selectin [% Inhib.]): 53%

SMILES: Cc1cccc(NC(=O)CCc2ccc(O)c(O)c2O)c1 [Compound 121]
- E-Selectin [% Inhib.] of cell attachment [1]: 18%
- P-Selectin [% Inhib.] of cell attachment [2]: 44%
- [% flux] at pH 4.0 [3]: 12%
- [% flux] at pH 7.4 [3]: 12%
- L-Selectin [% Inhib.] ([4]; compound at 100 μM): 77%
- P-Selectin [% Inhib.] ([5]; compound at 100 μM): 73%
- E-Selectin [% Inhib.] ([6]; compound at 100 μM): 29%

SMILES: Cc1cccc(NC(=O)Cc2ccc(O)c(O)c2O)c1 [Compound 122]
- E-Selectin [% Inhib.] of cell attachment [1]: 27%
- P-Selectin [% Inhib.] of cell attachment [2]: 22%
- [% flux] at pH 4.0 [3]: 6%
- [% flux] at pH 7.4 [3]: 0%
- L-Selectin [% Inhib.] ([4]; compound at 100 μM): 87%
- P-Selectin [% Inhib.] ([5]; compound at 100 μM): 81%
- E-Selectin [% Inhib.] ([6]; compound at 100 μM): 70%
